Laboratory results published in ChEMBL document CHEMBL4732119, “Design, synthesis and pharmacological evaluation of bicyclic and tetracyclic pyridopyrimidinone analogues as new KRAS inhibitors” (Eur J Med Chem, 2021).

Assays:
MIA PaCa-2 [1] = assay: Antiproliferative activity against human MIA PaCa-2 cells harboring KRAS G12C mutant assessed as growth inhibition measured after 72 hrs by CCK8 assay; assay type: functional, cell-based
[2] = Inhibition of recombinant human N-terminal polyHis-tagged KRAS isoform 2B G12C mutant (Thr2 to Cys185 residues) expressed in Escherichia coli using GTP as substrate measured after 2 hrs by GTPase-glo assay
GTPase KRas = GTPase KRas (Homo sapiens, UniProt P01116); assay: Inhibition of recombinant human N-terminal His-tagged KRAS (2 to 185 residues) expressed in baculovirus infected Sf9 insect cells using GTP as substrate measured after 2 hrs by GTPase-glo assay
NCI-H358 = assay: Antiproliferative activity against human NCI-H358 cells harboring KRAS G12C mutant assessed as growth inhibition measured after 72 hrs by SRB assay; assay type: functional, cell-based
MIA PaCa-2 [3] = assay: Antiproliferative activity against human MIA PaCa-2 cells harboring KRAS G12C mutant assessed as growth inhibition at 0.1 uM measured after 72 hrs by CCK8 assay relative to control; assay type: functional; details: for inhibition of growth at 0.1 µM: Homo sapiens, MIA PaCa-2, read-out: GI
MIA PaCa-2 [4] = assay: Antiproliferative activity against human MIA PaCa-2 cells harboring KRAS G12C mutant assessed as growth inhibition at 1 uM measured after 72 hrs by CCK8 assay relative to control; assay type: functional; details: for inhibition of growth at 1 µM: Homo sapiens, MIA PaCa-2, read-out: GI
MIA PaCa-2 [5] = assay: Antiproliferative activity against human MIA PaCa-2 cells harboring KRAS G12C mutant assessed as growth inhibition at 10 uM measured after 72 hrs by CCK8 assay relative to control; assay type: functional; details: for inhibition of growth at 10 µM: Homo sapiens, MIA PaCa-2, read-out: GI
A549 [6] = assay: Antiproliferative activity against human A549 cells harboring KRAS G12S mutant assessed as growth inhibition at 0.1 uM measured after 72 hrs by SRB assay relative to control; assay type: functional; details: for inhibition of growth at 0.1 µM: Homo sapiens, A549, read-out: GI
A549 [7] = assay: Antiproliferative activity against human A549 cells harboring KRAS G12S mutant assessed as growth inhibition at 1 uM measured after 72 hrs by SRB assay relative to control; assay type: functional; details: for inhibition of growth at 1 µM: Homo sapiens, A549, read-out: GI
A549 [8] = assay: Antiproliferative activity against human A549 cells harboring KRAS G12S mutant assessed as growth inhibition at 10 uM measured after 72 hrs by SRB assay relative to control; assay type: functional; details: for inhibition of growth at 10 µM: Homo sapiens, A549, read-out: GI
[9] = system: GTPase KRas (Homo sapiens), P01116 [G12C]; assay: Inhibition of KRAS G12C mutant in human NCI-H358 cells assessed as reduction in ERK phosphorylation measured after 6 hrs by Western blot analysis; assay type: cell-based; details: dose 10-1000 nM
[10] = system: GTPase KRas (Homo sapiens), P01116 [G12C]; assay: Inhibition of KRAS G12C mutant in human NCI-H358 cells assessed as reduction in AKT phosphorylation measured after 6 hrs by Western blot analysis; assay type: cell-based; details: dose 10-1000 nM
[11] = system: GTPase KRas (Homo sapiens), P01116 [G12C]; details: NCI-H358, dose 10-1000 nM, time 6.0 hrs
A549 [12] = assay: Antiproliferative activity against human A549 cells harboring KRAS G12S mutant assessed as growth inhibition measured after 72 hrs by SRB assay; assay type: functional, cell-based; details: A549, 72 h
NCI-H1975 = assay: Antiproliferative activity against human NCI-H1975 cells harboring wild-type KRAS assessed as growth inhibition measured after 72 hrs by SRB assay; assay type: functional, cell-based; details: NCI-H1975, 72 h

| SMILES | IC50 [2] | IC50 (MIA PaCa-2 [1]; Homo sapiens, MIA PaCa-2, 72 h) | inhibition of growth at 0.1 µM (MIA PaCa-2 [3]) | inhibition of growth at 1 µM (MIA PaCa-2 [4]) | inhibition of growth at 10 µM (MIA PaCa-2 [5]) | inhibition of growth at 0.1 µM (A549 [6]) | inhibition of growth at 1 µM (A549 [7]) | inhibition of growth at 10 µM (A549 [8]) | also measured |
| --- | --- | --- | --- | --- | --- | --- | --- | --- | --- |
| C=CC(=O)N1CCN(c2nc(=O)n(-c3c(C)ccnc3C(C)C)c3nc4c(cc23)oc2ccc(C)cc24)[C@@H](C)C1 |  | > 10000 nM | 40.6% | 42.7% | 57.8% | 2.95% | 1.74% | 27.8% |  |
| CC#CC(=O)N1CCN(c2nc(=O)n(-c3c(C)ccnc3C(C)C)c3cc(-c4c(O)cccc4F)ncc23)[C@@H](C)C1 |  |  | 20.2% | 19.7% | 41.8% | 3.69% | 3.57% | 56.7% |  |
| C=CC(=O)N1CCN(c2nc(=O)n(-c3c(C)ccnc3C(C)C)c3nc(-c4c(O)cccc4F)ncc23)[C@@H](C)C1 |  |  | 5.39% | 8.56% | 49% | 5.83% | -5.05% | 23% |  |
| C=CC(=O)N1CCN(c2nc(=O)n(-c3c(C)ccnc3C(C)C)c3nc4c(cc23)oc2cccc(O)c24)[C@@H](C)C1 |  |  | 1.41% | 1.71% | 9.78% | 32.8% | 35.3% | 23.1% |  |
| C=CC(=O)N1CCN(c2nc(=O)n(-c3c(C)ccnc3C(C)C)c3nc4c(cc23)oc2ccc(F)cc24)[C@@H](C)C1 |  | > 10000 nM | 15.9% | 35.4% | 52.8% | 2.52% | 6.97% | 24.6% |  |
| CC#CC(=O)N1CCN(c2nc(=O)n(-c3c(C)ccnc3C(C)C)c3nc4c(cc23)oc2cccc(F)c24)[C@@H](C)C1 |  |  | 0.49% | 14.2% | 27.3% | -1.01% | 4.36% | 22.3% |  |
| C=C(F)C(=O)N1CCN(c2nc(=O)n(-c3c(C)ccnc3C(C)C)c3cc(-c4c(O)cccc4F)ncc23)[C@@H](C)C1 |  |  | 25.1% | 29.2% | 35% | 5.24% | 5.95% | 19% |  |
| C=CC(=O)N1CCN(c2nc(=O)n(-c3c(C)ccnc3C(C)C)c3cc(-c4c(O)cccc4F)ncc23)[C@@H](C)C1 |  |  | 4.05% | 24.8% | 64.2% | 9.11% | 7.53% | 52.7% |  |
| C=CC(=O)N1CCN(c2nc(=O)n(-c3c(C)ccnc3C(C)C)c3nc4c(cc23)oc2cc(F)c(F)cc24)[C@@H](C)C1 |  | 7970 nM | 32.3% | 6.35% | 75.2% | -5.33% | 7.03% | 21.1% |  |
| C=CC(=O)N1CCN(c2nc(=O)n(-c3c(C)ccnc3C(C)C)c3c(F)c(-c4c(O)cccc4F)ncc23)[C@@H](C)C1 (stereo in doubt; 26a) [listing 1 of 2 here] |  |  |  |  |  |  |  |  | inhibition [9]: Dose-dependent effect; inhibition [10]: Dose-dependent effect; inhibition [11]: Dose-dependent effect |
| C=C(C(=O)N1CCN(c2nc(=O)n(-c3c(C)ccnc3C(C)C)c3cc(-c4c(O)cccc4F)ncc23)[C@@H](C)C1)C(F)(F)F |  |  | 6.23% | 18.1% | 85.5% | 2.29% | 6.65% | 91.6% |  |
| C=CC(=O)N1CCN(c2nc(=O)n(-c3c(C)ccnc3C(C)C)c3c(Cl)c(-c4c(O)cccc4F)ncc23)[C@@H](C)C1 | 2400 nM | 2700 nM |  |  |  |  |  |  | IC50 (GTPase KRas): > 10000 nM; IC50 (NCI-H358; Homo sapiens, NCI-H358, 72 h): 1210 nM; IC50 (A549 [12]): > 10000 nM; IC50 (NCI-H1975): > 10000 nM |
| C=CC(=O)N1CCN(c2nc(=O)n(-c3c(C)ccnc3C(C)C)c3nc(-c4c(O)cccc4F)c(F)cc23)[C@@H](C)C1 [SOTORASIB] | 1270 nM | 29 nM |  |  |  |  |  |  | growth inhibition (GI) (MIA PaCa-2 [3]): 49.49%; growth inhibition (GI) (MIA PaCa-2 [4]): 64.63%; growth inhibition (GI) (MIA PaCa-2 [5]): 59.49%; growth inhibition (GI) (A549 [6]): 4.13%; growth inhibition (GI) (A549 [7]): 5.81%; growth inhibition (GI) (A549 [8]): 24.09%; IC50 (NCI-H358; Homo sapiens, NCI-H358, 72 h): < 16 nM; IC50 (A549 [12]): > 10000 nM; IC50 (NCI-H1975): > 10000 nM |
| C=CC(=O)N1CCN(c2nc(=O)n(-c3c(C)ccnc3C(C)C)c3nc4c(cc23)oc2cccc(F)c24)[C@@H](C)C1 |  |  | 35.3% | 19.3% | 48.7% | 7.06% | 2.22% | 28.6% |  |
| Cc1ccnc(C(C)C)c1-n1c(=O)nc(N2CCN(C(=O)/C=C/CN(C)C)C[C@@H]2C)c2cc3oc4cccc(F)c4c3nc21 |  |  | 1.88% | 14.9% | 32% | 7.85% | 2.99% | 2.64% |  |
| C=CC(=O)N1CCN(c2ncnc3c(F)c(-c4c(O)cccc4F)c(Cl)cc23)CC1 |  | 1060 nM | 21% | 34.9% | 62.5% | 8.27% | 6.3% | 31.2% |  |
| C=CC(=O)N1C2CCC1CN(c1nc(=O)n(-c3c(C)ccnc3C(C)C)c3nc4c(cc13)oc1cccc(F)c14)C2 |  | > 10000 nM | 8.58% | 14.5% | 53.2% | 4.85% | 9.32% | 35.7% |  |

Second part, led by results:

| IC50 [2] | IC50 (MIA PaCa-2 [1]; Homo sapiens, MIA PaCa-2, 72 h) | SMILES | inhibition of growth at 0.1 µM (MIA PaCa-2 [3]) | inhibition of growth at 1 µM (MIA PaCa-2 [4]) | inhibition of growth at 10 µM (MIA PaCa-2 [5]) | inhibition of growth at 0.1 µM (A549 [6]) | inhibition of growth at 1 µM (A549 [7]) | inhibition of growth at 10 µM (A549 [8]) | also measured |
| --- | --- | --- | --- | --- | --- | --- | --- | --- | --- |
| 1790 nM |  | C=CC(=O)N1CCN(c2nc(=O)n(-c3c(C)ccnc3C(C)C)c3c(F)c(-c4c(O)cccc4F)ncc23)[C@@H](C)C1 (stereo in doubt; 26aa) |  |  |  |  |  |  | IC50 (MIA PaCa-2 [1]; mia paca-2): 600 nM; IC50 (GTPase KRas; sf9): > 10000 nM; IC50 (NCI-H358; nci-h358): 300 nM |
| > 10000 nM |  | C=CC(=O)N1CCN(c2nc(=O)n(-c3c(C(C)C)cccc3C(C)C)c3c(F)c(-c4c(O)cccc4F)ncc23)[C@@H](C)C1 |  |  |  |  |  |  | IC50 (GTPase KRas): > 10000 nM |
| > 10000 nM |  | C=CC(=O)N1CCN(c2nc(=O)n(-c3c(C(C)C)ncnc3C(C)C)c3c(Cl)c(-c4c(O)cccc4F)ncc23)[C@@H](C)C1 |  |  |  |  |  |  | IC50 (GTPase KRas): > 10000 nM |
| 3570 nM |  | C=CC(=O)N1CCN(c2nc(=O)n(-c3c(C)ccnc3C(C)C)c3c(F)c(-c4c(O)cccc4F)ncc23)[C@@H](C)C1 (stereo in doubt; 26ab) |  |  |  |  |  |  | IC50 (MIA PaCa-2 [1]; mia paca-2): 1500 nM; IC50 (GTPase KRas; sf9): > 10000 nM; IC50 (NCI-H358; nci-h358): 880 nM |
| 1810 nM | 430 nM | C=CC(=O)N1CCN(c2nc(=O)n(-c3c(C(C)C)ncnc3C(C)C)c3c(F)c(-c4c(O)cccc4F)ncc23)[C@@H](C)C1 |  |  |  |  |  |  | IC50 (GTPase KRas): > 10000 nM; IC50 (NCI-H358; Homo sapiens, NCI-H358, 72 h): 260 nM; IC50 (A549 [12]): 3270 nM; IC50 (NCI-H1975): 8990 nM |
| 1870 nM |  | C=CC(=O)N1CCN(c2nc(=O)n(-c3c(C)ccnc3C(C)C)c3c(F)c(-c4c(O)cccc4F)ncc23)[C@@H](C)C1 (stereo in doubt; 26a) [listing 2 of 2 here] |  |  |  |  |  |  | IC50 (MIA PaCa-2 [1]; mia paca-2): 530 nM; IC50 (GTPase KRas): > 10000 nM; IC50 (NCI-H358; nci-h358): 260 nM; IC50 (A549 [12]): > 10000 nM; IC50 (NCI-H1975): > 10000 nM |
